Source: patent US20260317319A1, “NOVEL ERGOLINES AND METHODS OF TREATING MOOD DISORDERS” (Gilgamesh Pharma Inc., priority 2023, published 2026)
pEC50, pKi: −log10 of the molar value. Like-named read-outs stand apart in the source and are kept apart here.

Assays:
5-HT2B receptor [1] = molecular target: T1, 5-HT2B receptor (Homo sapiens, UniProt P41595); assay: cell-based; type: cell-based; conditions: Ca2+ flux; for Emax: HEK293, agonist, read-out: 5-HT2B % Act @ Max Dose; for Emax / 5-HT2B % Act @ Max Dose: HEK293, max dose
T1 construct: expressed in transfected cells; host or cells: HEK293, stably transfected
Summary of the method: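 FLIPR Tetra fluorescence read-out of calcium flux after compound addition. Receptor-expressing stable lines were used (HEK293 for 2A/2B; CHO with Gα15 for 1A), dye-loaded with Fluo-4 Direct and 2.5 mM final probenecid, 50 min at 37 °C.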

5-HT1B receptor = molecular target: T2, 5-HT1B receptor (Homo sapiens, UniProt P28222); assay: cAMP accumulation functional assay at 5-HT1B; type: cell-based; conditions: agonist, cAMP accumulation; for Emax: read-out: 5-HT1B % Act @ Max Dose
T2 construct: expressed in transfected cells
Summary of the method: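 Agonist activity measured as cAMP accumulation in cells stably transfected with human 5-HT1B. Cells incubated 60 min at RT, then detection reagent added for a further 60 min at RT before plate reading.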

5-HT2B receptor [2] = molecular target: T1, 5-HT2B receptor; assay: 5-HT2B receptor radioligand binding ([3H]LSD)
5-HT2A receptor [3] = molecular target: T3, 5-HT2A receptor (Homo sapiens, UniProt P28223); assay: cell-based; type: cell-based; conditions: for Emax / 5-HT2A Arrestin % Act @ Max Dose: max dose; for Emax: read-out: 5-HT2A Arrestin % Act @ Max Dose
Summary of the method: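 PathHunter β-arrestin recruitment (enzyme fragment complementation): 5-HT2A fused to ProLink donor in cells co-expressing β-arrestin–β-galactosidase acceptor, seeded and held at 37° C before testing. Chemiluminescent read-out; agonist % activity = (sample RLU − vehicle)/(max control ligand − vehicle) × 100.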

5-HT1A receptor = molecular target: T4, 5-HT1A receptor (Homo sapiens, UniProt P08908); assay: cell-based; conditions: agonist, Ca2+ flux; for Emax: CHO, read-out: 5-HT1A % Act @ Max Dose
T4 construct: expressed in transfected cells; host or cells: CHO cells, stably transfected
T4 sequence (P08908 1-422): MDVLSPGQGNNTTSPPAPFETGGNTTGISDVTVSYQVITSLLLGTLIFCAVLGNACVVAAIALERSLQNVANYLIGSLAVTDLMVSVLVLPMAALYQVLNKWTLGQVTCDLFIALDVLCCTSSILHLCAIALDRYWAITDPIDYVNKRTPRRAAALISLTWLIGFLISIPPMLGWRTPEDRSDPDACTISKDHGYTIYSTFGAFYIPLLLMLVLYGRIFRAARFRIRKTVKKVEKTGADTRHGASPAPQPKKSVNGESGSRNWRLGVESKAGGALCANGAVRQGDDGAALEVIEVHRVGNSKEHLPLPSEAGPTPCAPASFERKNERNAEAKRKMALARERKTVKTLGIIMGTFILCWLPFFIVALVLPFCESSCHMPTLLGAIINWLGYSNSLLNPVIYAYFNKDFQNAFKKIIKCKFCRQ
Summary of the method: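 Receptor agonism was assessed as intracellular calcium mobilization in stably transfected cells, with CHO cells additionally carrying Gα15 for the 5-HT1A readout. Calcium was monitored with Fluo-4 Direct dye.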

5-HT2C receptor = molecular target: T5, 5-HT2C receptor (Homo sapiens, UniProt P28335); assay: cell-based; conditions: for Emax: read-out: 5-HT2C % Act @ Max Dose
T5 sequence (P28335 33-458): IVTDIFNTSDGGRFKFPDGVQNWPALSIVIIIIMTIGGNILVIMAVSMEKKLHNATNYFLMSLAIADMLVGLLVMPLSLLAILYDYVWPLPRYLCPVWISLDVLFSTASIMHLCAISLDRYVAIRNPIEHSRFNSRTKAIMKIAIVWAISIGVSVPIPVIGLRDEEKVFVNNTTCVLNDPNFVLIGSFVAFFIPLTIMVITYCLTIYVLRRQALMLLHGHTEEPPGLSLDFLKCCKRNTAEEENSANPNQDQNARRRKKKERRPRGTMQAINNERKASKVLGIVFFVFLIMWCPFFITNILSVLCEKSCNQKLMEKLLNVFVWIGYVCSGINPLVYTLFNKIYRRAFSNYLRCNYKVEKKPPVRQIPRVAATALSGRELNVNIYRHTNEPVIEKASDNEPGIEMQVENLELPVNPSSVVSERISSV

C57BL/6 mice = assay: Automated mouse head twitch response (HTR) assay (video tracking); type: in vivo; conditions: sc; for # HTR/20 min at Most Efficacious Dose: 20 min recording, at each compound's most efficacious dose (35*, 43*, 44*: suppressed below vehicle 14.5, dose is that of least suppression); for # HTR/20 min at Most Efficacious Dose / Peak HTR/min at Most Efficacious Dose: mean; for Most Efficacious Dose for Peak HTR/min: dose giving highest peak HTR/min (35*, 43*, 44*: dose that resulted in the least suppression); for Most Efficacious Dose for # HTR/20 min: dose giving most HTR/20 min (35*, 43*, 44*: dose that resulted in the least suppression); for Peak HTR/min at Most Efficacious Dose: rate over 2-min bins, at each compound's most efficacious dose (35*, 43*, 44*: suppressed below vehicle 1.62, dose is that of least suppression)
Experimental: Disclosed compounds were tested for their ability to induce a head twitch response (HTR) in mice using an automated video tracking procedure, with the results summarized in Table 8 and FIG. 4.
Animals. Adult male C57BL/6 mice aged 8-10 weeks (Jackson Labs, Bar Harbor, ME; body weight 18-25 g) were used in this experiment. Animals were group housed under environmentally controlled temperatures and 12-hour light/dark cycles (lights on between 06:00-18:00 h), with ad libitum food and water. Mice were habituated to the facility for at least 5 days prior to testing. All animal procedures were approved by the local IACUC and conducted in accordance with the NIH Guide for the Care and Use of Laboratory Animals.
Procedure. Mice were administered one dose of the drug and immediately placed into a small open field for behavioral observation. High-speed video of animals' behavior was captured continuously for 20 min. Video recordings were imported into an image processing software, which detects multiple points of interest on each animal's body, including the left and right ear. HTR events were defined as periodic deviations of ear locations from temporally averaged ear locations. Predefined thresholds for magnitude and frequency of location deviations were used to filter HTR events from random head movements. The method was validated by comparing detected events with manual (human) observations and found to have an accuracy >95%. The total number of HTR events counted during the 20-min recording and the rate in HTR/min calculated over 2-min bins were determined for each animal at each dose.
Statistical Analysis. The data points shown are the mean±standard error of the mean (SEM).

5-HT2A receptor [4] = molecular target: T3, 5-HT2A receptor; assay: cell-based; type: cell-based; set-up: expressed in transfected cells; host or cells: HEK293, stably transfected; conditions: for Emax: HEK293, agonist, read-out: 5-HT2A % Act @ Max Dose
Summary of the method: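 Agonist activity measured by FLIPR Ca2+ flux in stably transfected cells: HEK293 for 5-HT2A and 5-HT2B, CHO co-expressing Gα15 for 5-HT1A. Cells loaded with Fluo-4 Direct dye plus probenecid (2.5 mM final) for 50 min at 37 °C, 5% CO2; compounds added and fluorescence read on FLIPR Tetra.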

5-HT2A receptor [5] = molecular target: T3, 5-HT2A receptor; assay: biochemical; type: binding; set-up: expressed in transfected cells; host or cells: HEK293, stably transfected
Summary of the method: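 Binding affinity comes from a [^3H]ketanserin radioligand assay run under literature-adapted conditions.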

in vitro [6] = type: in vitro ADME, human; conditions: HLM 0.50 mg/mL, NADPH 1 mM, 1 μM compound, pH 7.4, 37° C., 60 min
in vitro [7] = type: in vitro ADME, rat; conditions: RLM (male Sprague-Dawley) 0.50 mg/mL, NADPH 1 mM, 1 μM compound, pH 7.4, 37° C., 60 min
Source text: RLM Stability Pooled RLM from male Sprague-Dawley rats (Xenotech R1000) were used.

in vitro [8] = type: in vitro ADME, mouse; conditions: MLM (male CD-1) 0.50 mg/mL, NADPH 1 mM, 1 μM compound, pH 7.4, 37° C., 60 min
Source text: MLM Stability Pooled MLM from male CD-1 mice (BIOIVT M00501) were used.

[9] = agonist, beta-arrestin recruitment, PathHunter, read-out: 5-HT2A Arrestin EC50
[10] = agonist, beta-arrestin recruitment
[11] = agonist, Ca2+ flux, Eurofins DiscoverX protocol, max dose
[12] = agonist, Ca2+ flux, Eurofins DiscoverX protocol, read-out: 5-HT2C EC50

T1 sequence (P41595 whole entry): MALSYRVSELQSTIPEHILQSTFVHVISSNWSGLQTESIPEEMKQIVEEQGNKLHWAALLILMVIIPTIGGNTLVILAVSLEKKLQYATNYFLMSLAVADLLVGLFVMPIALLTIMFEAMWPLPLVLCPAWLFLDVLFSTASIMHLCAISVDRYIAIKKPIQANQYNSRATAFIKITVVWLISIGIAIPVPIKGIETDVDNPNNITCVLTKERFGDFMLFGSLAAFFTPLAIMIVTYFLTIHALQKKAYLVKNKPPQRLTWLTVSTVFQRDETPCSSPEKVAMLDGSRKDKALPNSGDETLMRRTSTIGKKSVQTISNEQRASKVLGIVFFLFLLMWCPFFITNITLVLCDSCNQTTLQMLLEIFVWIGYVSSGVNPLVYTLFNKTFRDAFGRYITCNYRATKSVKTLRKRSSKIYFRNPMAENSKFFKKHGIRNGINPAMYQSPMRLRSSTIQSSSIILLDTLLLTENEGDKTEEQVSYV
T3 sequence (P28223 whole entry, the tested form may be a part): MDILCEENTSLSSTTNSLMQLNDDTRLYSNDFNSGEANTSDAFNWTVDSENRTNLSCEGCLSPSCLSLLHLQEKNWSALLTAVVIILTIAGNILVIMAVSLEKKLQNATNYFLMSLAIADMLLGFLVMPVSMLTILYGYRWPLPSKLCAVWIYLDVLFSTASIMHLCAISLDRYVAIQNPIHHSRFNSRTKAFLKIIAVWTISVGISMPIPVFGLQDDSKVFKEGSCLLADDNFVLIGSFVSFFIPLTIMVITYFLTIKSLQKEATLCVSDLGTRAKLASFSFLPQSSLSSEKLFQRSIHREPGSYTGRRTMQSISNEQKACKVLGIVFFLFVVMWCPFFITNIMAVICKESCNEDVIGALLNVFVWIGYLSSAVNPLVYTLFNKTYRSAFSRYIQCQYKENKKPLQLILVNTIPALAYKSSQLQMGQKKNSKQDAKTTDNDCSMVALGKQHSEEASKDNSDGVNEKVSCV
T2 sequence (P28222 whole entry): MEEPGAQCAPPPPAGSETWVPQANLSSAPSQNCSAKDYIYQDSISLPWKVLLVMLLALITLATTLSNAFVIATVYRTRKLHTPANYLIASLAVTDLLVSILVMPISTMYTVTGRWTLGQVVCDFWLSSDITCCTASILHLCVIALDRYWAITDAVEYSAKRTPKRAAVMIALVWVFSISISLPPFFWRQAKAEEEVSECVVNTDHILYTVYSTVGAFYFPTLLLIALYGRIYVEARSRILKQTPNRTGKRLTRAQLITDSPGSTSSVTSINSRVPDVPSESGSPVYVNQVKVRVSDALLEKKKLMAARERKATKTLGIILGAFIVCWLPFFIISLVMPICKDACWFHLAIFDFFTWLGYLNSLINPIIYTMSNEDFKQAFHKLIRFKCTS

SMILES | Emax (5-HT2B receptor [1]) [%] | Emax (5-HT1B receptor; max dose) [%] | pKi (5-HT2B receptor [2]; read-out: 5-HT2B Receptor Ki) | pEC50 (5-HT2A receptor [3]; [9]) | Emax (5-HT2A receptor [3]; [10]) [%] | Emax (5-HT1A receptor; CHO cells with Gα15, max dose) [%] | Emax (5-HT2C receptor; [11]) [%] | pEC50 (5-HT2C receptor; [12]) | # HTR/20 min at Most Efficacious Dose (C57BL/6 mice) [HTR/20 min] | Most Efficacious Dose for Peak HTR/min (C57BL/6 mice) | Most Efficacious Dose for # HTR/20 min (C57BL/6 mice) | Peak HTR/min at Most Efficacious Dose (C57BL/6 mice) [HTR/min] | Emax (5-HT2A receptor [4]; Ca2+ flux, HEK293, max dose) [%] | 5-HT2B % Act @ Max Dose (5-HT2B receptor [1]; agonist) [%] | 5-HT2A Arrestin % Act @ Max Dose (5-HT2A receptor [3]; [10]) [%] | Intrinsic clearance (Clint) (in vitro [6]) [µL/min/mg] | half-life (t1/2) (in vitro [6]) [h] | also measured
CCC(CC)NC(=O)[C@@H]1C=C2c3cccc4[nH]c(Br)c(c34)C[C@H]2N(C)C1 [Compound 44, (6aR,9R)-5-bromo-N-(pentan-3-yl)-7-methyl-4,6,6a,7,8,9-hexahydroindolo[4,3-fg]quinoline-9-carboxamide] | 15.7 | 68.5 | 8.03 | 8.77 | 40.7 | 16.6 | 40 | 5.31 | 4.38 | (3.2) mg/kg, sc | (1) mg/kg, sc | 0.93 | 29.9 | – | – | – | – | –
CCN(CC)C(=O)[C@@H]1C=C2c3cccc4[nH]c(Br)c(c34)C[C@H]2N(CCC(F)(F)F)C1 [Compound 42, (6aR,9R)-5-bromo-N,N-diethyl-7-(3,3,3-trifluoropropyl)-4,6,6a,7,8,9-hexahydroindolo[4,3-fg]quinoline-9-carboxamide] | 2.58 | 33.1 | 6.62 | 7.80 | 49.4 | 9.13 | 17.9 | < 5.00 | – | – | – | – | 8.29 | – | – | – | – | potency in receptor binding (5-HT2A receptor [5]; radioligand binding, 5-HT2A): potent binding to 5-HT2A; agonist activity at any of the serotonin receptors tested (5-HT2A receptor [4]; functional assays at 5-HT2A, 2B, 2C, 1A, 1B): no agonist activity at any of the receptors tested
CCC[C@@H](C)NC(=O)[C@@H]1C=C2c3cccc4[nH]c(Br)c(c34)C[C@H]2N(C)C1 [Compound 45, (6aR,9R)-5-bromo-N—((R)-pentan-2-yl)-7-methyl-4,6,6a,7,8,9-hexahydroindolo[4,3-fg]quinoline-9-carboxamide] | -0.31 | 87.1 | 8.44 | 8.37 | 45.3 | 12.5 | 22.1 | < 5.00 | – | – | – | – | 22.3 | – | – | – | – | –
CCN(CC)C(=O)[C@@H]1C=C2c3cccc4[nH]c(Br)c(c34)C[C@H]2N(C)C1 [Compound 35, (6aR,9R)-5-bromo-N,N-diethyl-7-methyl-4,6,6a,7,8,9-hexahydroindolo[4,3-fg]quinoline-9-carboxamide] | – | – | – | – | – | – | – | – | 2.38 | (0.1) mg/kg, sc | (0.1) mg/kg, sc | 0.56 | – | -0.13 | 30.94 | 57.4 | 0.403 | pKi (5-HT2B receptor [2]): 8.30; pEC50 (5-HT2A receptor [3]): 8.78; pEC50 (5-HT1A receptor; CHO cells with Gα15): < 4.00; 5-HT1A % Act @ Max Dose (5-HT1A receptor; CHO cells with Gα15, max dose): 11.94%; pEC50 (5-HT2C receptor): < 5.00; 5-HT2C % Act @ Max Dose (5-HT2C receptor; [11]): 0%
CCN(CC)C(=O)[C@@H]1C=C2c3cccc4[nH]cc(c34)C[C@H]2NC1 [Compound 83] | – | – | – | 8.57 | – | – | – | – | 29.625 | (10) mg/kg, sc | (3.2) mg/kg, sc | 3.625 | – | 69.27 | 88.78 | <9.6 | >2.42 | pEC50 (5-HT2B receptor [1]; agonist, HEK293): 7.65; pEC50 (5-HT1B receptor): 7.56; 5-HT1B % Act @ Max Dose (5-HT1B receptor; max dose): 88.07%; pKi (5-HT2B receptor [2]; [3H]LSD 2 nM, HEK293 stable cell line, 1 h, 25 °C, read-out: 5-HT2B Receptor Ki): 6.94; pKi (5-HT2A receptor [5]; [3H]ketanserin 1 nM, HEK293 stable cell line, 1 h, 25 °C): 8.25; Intrinsic clearance (Clint) (in vitro [7]): 15.3 µL/min/mg; half-life (t1/2) (in vitro [7]): 1.51 h; Intrinsic clearance (Clint) (in vitro [8]): 12.6 µL/min/mg; half-life (t1/2) (in vitro [8]): 1.835 h; pEC50 (5-HT2A receptor [4]; agonist, Ca2+ flux, HEK293): 8.77; 5-HT2A % Act @ Max Dose (5-HT2A receptor [4]; agonist, Ca2+ flux, HEK293, max dose): 107.11%
CC[C@@H](C)NC(=O)[C@@H]1C=C2c3cccc4[nH]c(Br)c(c34)C[C@H]2N(C)C1 [Compound 43, (6aR,9R)-5-bromo-N—((R)-sec-butyl)-7-methyl-4,6,6a,7,8,9-hexahydroindolo[4,3-fg]quinoline-9-carboxamide] | 1 | 83.8 | 8.02 | 8.65 | 51.8 | 6.3 | 3.13 | < 5.00 | 6.5 | – | (0.1) mg/kg, sc | 1 | 39.3 | – | – | – | – | –
